Consider three compounds from paper PMC5441849, “Carvacrol derivatives as mushroom tyrosinase inhibitors; synthesis, kinetics mechanism and molecular docking studies” (PLoS ONE, 2017).

Entries after “also recorded” stand apart in the source; their conditions may differ. Read-outs that look alike come from different tables or passages of the source.

The term Ki denotes the equilibrium dissociation constant of an inhibitor or competing ligand from its target.

The target in assay [1] is T1, mushroom tyrosinase (Agaricus bisporus, UniProt C7FF04).
T1 construct: purchased Sigma
T1 sequence (C7FF04 2-392): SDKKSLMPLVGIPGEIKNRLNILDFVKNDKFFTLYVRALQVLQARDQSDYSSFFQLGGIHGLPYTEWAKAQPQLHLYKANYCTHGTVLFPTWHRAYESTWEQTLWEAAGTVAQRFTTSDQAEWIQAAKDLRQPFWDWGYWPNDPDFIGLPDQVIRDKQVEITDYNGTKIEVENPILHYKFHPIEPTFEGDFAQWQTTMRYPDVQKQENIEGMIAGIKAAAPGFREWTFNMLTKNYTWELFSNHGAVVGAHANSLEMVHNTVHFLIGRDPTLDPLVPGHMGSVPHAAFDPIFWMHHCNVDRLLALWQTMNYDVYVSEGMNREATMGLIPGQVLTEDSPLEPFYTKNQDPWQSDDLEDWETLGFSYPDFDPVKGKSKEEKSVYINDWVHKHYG
The assay can be described thus: Kinetic analysis of tyrosinase inhibition (Lineweaver-Burk and Dixon plots, diphenolase activity). The assay is classed as biochemical, Agaricusbisporus. As to conditions: for Type of inhibition: Lineweaver-Burk plots, oxidation of L-DOPA. As for the experimental part:
Pre-incubation and measurement time was the same as discussed in mushroom tyrosinase inhibition assay protocol. Formation of DOPAchrome was continuously monitored at 475nm for 5min at a 30s interval in the microplate reader after addition of enzyme.

Assay [2] deals with T1, mushroom tyrosinase. Kind of assay: Reversibility of inhibition (remaining enzyme activity versus enzyme concentration). The assay is classed as biochemical, Agaricusbisporus. The following applies: enzyme 2 to 10 μg/mL, L-DOPA, 37°C. As for the experimental part: Assay conditions were same as described in assay protocolexceptthat the final concentration of enzyme was varied (2 to 10 μg/mL).

The mark [3] stands for this setting: Dixon plot, L-DOPA substrate, read-out: Inhibition constant Ki.

As for `Cc1ccc(C(C)C)cc1OC(=O)COC(=O)c1ccc(O)cc1O` [4c, 2-[2-methyl-5-(propan-2-yl)phenoxy]-2-oxoethyl 2,4-dihydroxybenzoate], the inhibitory constant (Ki) on mushroom tyrosinase [1] (setting [3]) was found to be 19 µM. Besides, the Type of inhibition entry at mushroom tyrosinase [1] is “mixed-type inhibition”. At mushroom tyrosinase [2], the “Reversibility of enzyme inhibition” value is given as “reversible inhibitor; also recorded: reversibly”.

Turning to `Cc1ccc(C(C)C)cc1OC(=O)COC(=O)/C=C/c1ccc(O)cc1` [6b, 2-[2-methyl-5-(propan-2-yl)phenoxy]-2-oxoethyl (2E)-3-(4-hydroxyphenyl)prop-2-enoate], the Ki on mushroom tyrosinase [1] (setting [3]) turned out to be 10 µM. In addition, at mushroom tyrosinase [1], the Type of inhibition entry is given as “mixed-type inhibition”. Further, the “Reversibility of enzyme inhibition” value at mushroom tyrosinase [2] was “irreversible”.

As to `Cc1ccc(C(C)C)cc1OC(=O)COC(=O)/C=C/c1ccc(O)cc1O` [6c, 2-[2-methyl-5-(propan-2-yl)phenoxy]-2-oxoethyl (2E)-3-(2,4-dihydroxyphenyl)prop-2-enoate], at mushroom tyrosinase [1], the Ki is 0.05 µM and the Type of inhibition result is recorded as “non-competitive inhibitor”. Also, the “Reversibility of enzyme inhibition” value at mushroom tyrosinase [2] is “irreversible; also recorded: irreversibly”.
